Experimental data as given in patent EP4737454A1, “GLP-1 RECEPTOR AGONIST, AND PREPARATION METHOD THEREFOR AND USE THEREOF” (Wayne Biotechnology Co., Ltd., priority 2023, dated 2025).
pEC50: −log10 of the molar value.

Target: Human GLP-1R (Homo sapiens, UniProt P43220)
Test: cAMP level determination in human GLP-1R stably transfected HEK293T cells (HTRF cAMP kit)
Type: cell-based
Details: 37°C 30 min
Experimental: Human GLP-1R HEK293T stably transfected cells were digested with trypsin, terminated with DMEM total (without p/s), centrifuged and washed twice with 1X Stimulation buffer, then resuspended in 1X stimulation buffer and counted. The cells were then prepared as a 1 Million/mL cell suspension in stimulation buffer. Compound powder was first prepared as a 10 mM stock solution in DMSO, then diluted to 2 mM with DMSO, and further prepared as 2X compound in 1X stimulation buffer (Cisbio kit buffer with freshly added IBMX at a final concentration of 0.5 mM). The top dose final concentration was 2000 nM, with a final DMSO concentration of 0.2%, diluted in a 1:3 gradient for 11 gradients.
According to the layout, 5 µl of compound was added to each well; Min wells contained 100 nM GLP-1, and Max wells contained 0.2% DMSO in 1X stimulation buffer. 5 µl of cell suspension was added to each well, centrifuged at 300 rpm at room temperature for 1 min, then incubated at 37°C for 30 min. 2X cAMP standards were prepared in 1X Stimulation buffer, with a top final concentration of 2.8 µM, diluted in a 1:3 gradient for 12 doses. According to the layout, 10 µl was added to each well. Finally, d2 and antibody were diluted 20-fold in 1X Detection buffer (Cisbio kit buffer), and 5 µl of each was added to each well according to the layout. After centrifugation at 300 rpm at room temperature for 1 min, the plate was incubated at room temperature for 2 hr.
Stimulation% was calculated based on Min and Max readings (665nm/615nm ratio) using the formula: 100*(ratio Max well - ratio test well)/(ratio Max well - ratio Min well). The cAMP concentration in each test well was derived from the cAMP standard curve, and the data was analyzed using GraphPad Prism 9 to plot four-parameter fit curves and calculate EC50 values using the formula: Y=Bottom + (Top-Bottom)/(1+10^((LogEC50-X)*HillSlope)). Table 1: cAMP Level Determination in Human GLP-1R Stably Transfected HEK293T Cells

Sequence of Human GLP-1R (P43220 24-463): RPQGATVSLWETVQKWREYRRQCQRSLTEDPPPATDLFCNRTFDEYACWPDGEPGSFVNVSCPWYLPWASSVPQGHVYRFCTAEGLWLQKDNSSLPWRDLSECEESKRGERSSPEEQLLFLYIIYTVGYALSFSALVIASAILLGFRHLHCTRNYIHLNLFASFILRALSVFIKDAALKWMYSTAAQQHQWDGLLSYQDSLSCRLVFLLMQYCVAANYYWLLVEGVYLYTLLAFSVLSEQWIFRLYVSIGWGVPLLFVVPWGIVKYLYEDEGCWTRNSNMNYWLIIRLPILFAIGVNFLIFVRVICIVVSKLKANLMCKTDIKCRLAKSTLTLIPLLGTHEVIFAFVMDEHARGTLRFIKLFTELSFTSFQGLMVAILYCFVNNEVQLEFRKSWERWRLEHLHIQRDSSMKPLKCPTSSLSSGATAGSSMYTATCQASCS

Structure (SMILES)	pEC50
CCc1cc(-n2ccn(-c3c4c(nn3-c3cc(C)c(F)c(C)c3)CCN(C(=O)c3cc5cc([C@H]6CCOC(C)(C)C6)ccc5n3[C@@]3(c5nc(=O)o[nH]5)C[C@@H]3C)[C@H]4C)c2=O)ccc1C(=O)N(C)C1CC1 [Compound 8]	8.32
Cc1cc(-n2nc3c(c2-n2ccn(-c4cc(F)c(C#N)cc4F)c2=O)[C@H](C)N(C(=O)c2cc4cc(C5CCOC(C)(C)C5)ccc4n2[C@@]2(c4nc(=O)o[nH]4)C[C@@H]2C)CC3)cc(C)c1F (stereo partly shown) [Compound 83]	7.89
Cc1cc(-n2nc3c(c2-n2ccn(-c4ccc(C(F)(F)F)c(C#N)c4)c2=O)[C@H](C)N(C(=O)c2cc4cc(C5CCOC(C)(C)C5)ccc4n2[C@@]2(c4nc(=O)o[nH]4)C[C@@H]2C)CC3)cc(C)c1F (stereo partly shown) [Compound 84]	8.01
C[C@H]1c2c(nn(-c3ccc(F)c(C4CC4(F)F)c3)c2-n2ccn(-c3ccc4c(cnn4C)c3F)c2=O)CCN1C(=O)c1cc2cc(C3CCOC(C)(C)C3)ccc2n1[C@@]1(c2nc(=O)o[nH]2)C[C@@H]1C (stereo partly shown) [Compound 2]	7.25
Cc1cc(-n2nc3c(c2-n2ccn(-c4cc(F)c(C(=O)N(C)C5CC5)c(F)c4)c2=O)[C@H](C)N(C(=O)c2cc4cc(C5CCOC(C)(C)C5)ccc4n2[C@@]2(c4nc(=O)o[nH]4)C[C@@H]2C)CC3)cc(C)c1F (stereo partly shown) [Compound 52]	7.96
Cc1cc(-n2nc3c(c2-n2ccn(-c4ccc(C(=O)N(C)C5CC5)c(C#N)c4)c2=O)[C@H](C)N(C(=O)c2cc4cc([C@H]5CCOC(C)(C)C5)ccc4n2[C@@]2(c4nc(=O)o[nH]4)C[C@@H]2C)CC3)cc(C)c1F [Compound 9]	8.31
Cc1cc(-n2nc3c(c2-n2ccn(-c4ccc(C#N)c(Cl)c4F)c2=O)[C@H](C)N(C(=O)c2cc4cc(C5CCOC(C)(C)C5)ccc4n2[C@@]2(c4nc(=O)o[nH]4)C[C@@H]2C)CC3)cc(C)c1F (stereo partly shown) [Compound 97]	8.11
Cc1cc(-n2nc3c(c2-n2ccn(-c4ccc(C(=O)N(C)C5(C)CC5)c(C(F)(F)F)c4)c2=O)[C@H](C)N(C(=O)c2cc4cc([C@H]5CCOC(C)(C)C5)ccc4n2[C@@]2(c4nc(=O)o[nH]4)C[C@@H]2C)CC3)cc(C)c1F [Compound 15]	8.14
Cc1cc(-n2ccn(-c3c4c(nn3-c3cc(C)c(F)c(C)c3)CCN(C(=O)c3cc5cc([C@H]6CCOC(C)(C)C6)ccc5n3[C@@]3(c5nc(=O)o[nH]5)C[C@@H]3C)[C@H]4C)c2=O)ccc1C(=O)N(C)C1CC1 [Compound 50]	7.94
Cc1cc(-n2nc3c(c2-n2ccn(-c4ccc5c(c4)C=CS5(=O)=O)c2=O)[C@H](C)N(C(=O)c2cc4cc(C5CCOC(C)(C)C5)ccc4n2[C@@]2(c4noc(=O)[nH]4)C[C@@H]2C)CC3)cc(C)c1F (stereo partly shown) [Compound 62]	7.87
Cc1cc(-n2nc3c(c2-n2ccn(-c4ccc(N(C)C(=O)C5CC5)cc4F)c2=O)[C@H](C)N(C(=O)c2cc4cc([C@H]5CCOC(C)(C)C5)ccc4n2[C@@]2(c4nc(=O)o[nH]4)C[C@@H]2C)CC3)cc(C)c1F [Compound 76]	8.09
Cc1cc(-n2nc3c(c2-n2ccn(-c4ccc(C(=O)N(C)C5(C)CC5)c(F)c4)c2=O)[C@H](C)N(C(=O)c2cc4cc(C5CCOC(C)(C)C5)ccc4n2[C@@]2(c4nc(=O)o[nH]4)C[C@@H]2C)CC3)cc(C)c1F (stereo partly shown) [Compound 51]	8.06
Cc1cc(-n2nc3c(c2-n2ccn(-c4ccc(C(=O)N(C)C5CC5)cc4C#N)c2=O)[C@H](C)N(C(=O)c2cc4cc(C5CCOC(C)(C)C5)ccc4n2[C@@]2(c4nc(=O)o[nH]4)C[C@@H]2C)CC3)cc(C)c1F (stereo partly shown) [Compound 36]	7.17
Cc1cc(-n2nc3c(c2-n2ccn(-c4ccc(C(=O)N(C)C5CC5)c(OC(F)F)c4)c2=O)[C@H](C)N(C(=O)c2cc4cc(C5CCOC(C)(C)C5)ccc4n2[C@@]2(c4nc(=O)o[nH]4)C[C@@H]2C)CC3)cc(C)c1F (stereo partly shown) [Compound 31]	7.82
Cc1cc(-n2nc3c(c2-n2ccn(-c4ccc(C(=O)N(C(C)C)C5CC5)cc4)c2=O)[C@H](C)N(C(=O)c2cc4cc(C5CCOC(C)(C)C5)ccc4n2[C@@]2(c4nc(=O)o[nH]4)C[C@@H]2C)CC3)cc(C)c1F (stereo partly shown) [Compound 25]	7.93
Cc1cc(-n2nc3c(c2-n2ccn(-c4ccc(N(C)C(=O)C5CC5)c(Cl)c4F)c2=O)[C@H](C)N(C(=O)c2cc4cc([C@H]5CCOC(C)(C)C5)ccc4n2[C@@]2(c4nc(=O)o[nH]4)C[C@@H]2C)CC3)cc(C)c1F [Compound 73]	8.20
Cc1cc(-n2nc3c(c2-n2ccn(-c4ccc(C(=O)N(C)C5CC5)c(OCC5CC5)c4)c2=O)[C@H](C)N(C(=O)c2cc4cc(C5CCOC(C)(C)C5)ccc4n2[C@@]2(c4nc(=O)o[nH]4)C[C@@H]2C)CC3)cc(C)c1F (stereo partly shown) [Compound 43]	7.88

Structure (SMILES)	pEC50
Cc1cc(-n2nc3c(c2-n2ccn(-c4cc5c(cc4F)S(=O)(=O)CC5)c2=O)[C@H](C)N(C(=O)c2cc4cc(C5CCOC(C)(C)C5)ccc4n2[C@@]2(c4nc(=O)o[nH]4)C[C@@H]2C)CC3)cc(C)c1F (stereo partly shown) [Compound 61]	7.97
Cc1cc(-n2nc3c(c2-n2ccn(-c4ccc5c(c4)CCCS5(=O)=O)c2=O)[C@H](C)N(C(=O)c2cc4cc(C5CCOC(C)(C)C5)ccc4n2[C@@]2(c4nc(=O)o[nH]4)C[C@@H]2C)CC3)cc(C)c1F (stereo partly shown) [Compound 58]	8.00
Cc1cc(-n2nc3c(c2-n2ccn(-c4ccc(C(=O)N(C)C5CC5)c(C)c4F)c2=O)[C@H](C)N(C(=O)c2cc4cc([C@H]5CCOC(C)(C)C5)ccc4n2[C@@]2(c4nc(=O)o[nH]4)C[C@@H]2C)CC3)cc(C)c1F [Compound 17]	8.05
Cc1cc(-n2nc3c(c2-n2ccn(-c4ccc(C(=O)N(C)C5(C#N)CC5)c(F)c4)c2=O)[C@H](C)N(C(=O)c2cc4cc(C5CCOC(C)(C)C5)ccc4n2[C@@]2(c4nc(=O)o[nH]4)C[C@@H]2C)CC3)cc(C)c1F (stereo partly shown) [Compound 23]	7.86
Cc1cc(-n2ccn(-c3c4c(nn3-c3cc(C)c(F)c(C)c3)CCN(C(=O)c3cc5cc(C6CCOC(C)(C)C6)ccc5n3[C@@]3(c5nc(=O)o[nH]5)C[C@@H]3C)[C@H]4C)c2=O)ccc1C#N (stereo partly shown) [Compound 87]	7.75
Cc1cc(-n2nc3c(c2-n2ccn(-c4ccccc4C#N)c2=O)[C@H](C)N(C(=O)c2cc4cc(C5CCOC(C)(C)C5)ccc4n2[C@@]2(c4nc(=O)o[nH]4)C[C@@H]2C)CC3)cc(C)c1F (stereo partly shown) [Compound 89]	6.70
Cc1cc(-n2nc3c(c2-n2ccn(-c4ccc(C#N)cc4F)c2=O)[C@H](C)N(C(=O)c2cc4cc(C5CCOC(C)(C)C5)ccc4n2[C@@]2(c4nc(=O)o[nH]4)C[C@@H]2C)CC3)cc(C)c1F (stereo partly shown) [Compound 81]	7.96
Cc1cc(-n2nc3c(c2-n2ccn(-c4ccc5c(c4)CCS5(=O)=O)c2=O)[C@H](C)N(C(=O)c2cc4cc([C@H]5CCOC(C)(C)C5)ccc4n2[C@@]2(c4nc(=O)o[nH]4)C[C@@H]2C)CC3)cc(C)c1F [Compound 56b]	8.25
Cc1cc(-n2nc3c(c2-n2ccn(-c4ccc5c(c4)CCS5(=O)=O)c2=O)[C@H](C)N(C(=O)c2cc4cc([C@@H]5CCOC(C)(C)C5)ccc4n2[C@@]2(c4nc(=O)o[nH]4)C[C@@H]2C)CC3)cc(C)c1F [Compound 56a]	6.62
Cc1cc(-n2nc3c(c2-n2ccn(-c4ccc5c(c4)C=CS5(=O)=O)c2=O)[C@H](C)N(C(=O)c2cc4cc([C@H]5CCOC(C)(C)C5)ccc4n2[C@@]2(c4noc(=O)[nH]4)C[C@@H]2C)CC3)cc(C)c1F [Compound 62b]	8.34
Cc1cc(-n2nc3c(c2-n2ccn(-c4ccc(C#N)nc4)c2=O)[C@H](C)N(C(=O)c2cc4cc(C5CCOC(C)(C)C5)ccc4n2[C@@]2(c4nc(=O)o[nH]4)C[C@@H]2C)CC3)cc(C)c1F (stereo partly shown) [Compound 91]	7.42
Cc1cc(-n2nc3c(c2-n2ccn(-c4ccc(C#N)c(F)c4)c2=O)[C@H](C)N(C(=O)c2cc4cc([C@@H]5CCOC(C)(C)C5)ccc4n2[C@@]2(c4nc(=O)o[nH]4)C[C@@H]2C)CC3)cc(C)c1F [Compound 82a]	6.34
C[C@H]1c2c(nn(-c3ccc(F)c(C4CC4)c3)c2-n2ccn(-c3ccc4c(cnn4C)c3F)c2=O)CCN1C(=O)c1cc2cc([C@@H]3CCOC(C)(C)C3)ccc2n1[C@@]1(c2nc(=O)o[nH]2)C[C@@H]1C [Compound 1a]	7.45
Cc1cc(-n2nc3c(c2-n2ccn(-c4ccc(C(=O)N5CCCC5)cc4)c2=O)[C@H](C)N(C(=O)c2cc4cc(C5CCOC(C)(C)C5)ccc4n2[C@@]2(c4nc(=O)o[nH]4)C[C@@H]2C)CC3)cc(C)c1F (stereo partly shown) [Compound 22]	7.30
Cc1cc(-n2nc3c(c2-n2ccn(-c4ccc(C(=O)N(C)C5(C)CC5)c(OC(F)(F)F)c4)c2=O)[C@H](C)N(C(=O)c2cc4cc(C5CCOC(C)(C)C5)ccc4n2[C@@]2(c4nc(=O)o[nH]4)C[C@@H]2C)CC3)cc(C)c1F (stereo partly shown) [Compound 34]	8.13
Cc1cc(-n2ccn(-c3c4c(nn3-c3cc(C)c(F)c(C)c3)CCN(C(=O)c3cc5cc(C6CCOC(C)(C)C6)ccc5n3[C@@]3(c5nc(=O)o[nH]5)C[C@@H]3C)[C@H]4C)c2=O)ccc1C(=O)N(C)C1(C)CC1 (stereo partly shown) [Compound 35]	7.70
Cc1cc(-n2nc3c(c2-n2ccn(-c4ccc5c(c4)CCN(C4CC4)C5=O)c2=O)[C@H](C)N(C(=O)c2cc4cc(C5CCOC(C)(C)C5)ccc4n2[C@@]2(c4nc(=O)o[nH]4)C[C@@H]2C)CC3)cc(C)c1F (stereo partly shown) [Compound 55]	8.09
